The values that follow come from US20100062492A1, “Method For Preparing Icariside II, Cosmetic Composition Containing The Same and the Use Thereof For Skin Whitening” (Amorepacific Corporation, priority 2006, published 2010).

The test system of one test is human skin. As to the kind of experiment: Test of whitening effect on human skin after UVB-induced blackness. Format: in vivo. The following applies: 1% solution in 1,3-butyleneglycol:ethanol=7:3 applied to UVB-irradiated upper arm of 12 healthy men, 10 weeks; ΔL* higher than about 1.5 = whitening effect. The text has this:
First, a perforated opaque tape having a diameter of 1.5 cm was attached to the upper arm of each of 12 healthy men. Then, UV rays (UVB) were irradiated to each of the subjects at a dose 1.5-2 times higher than the minimal erythema dose of each subject, thus inducing skin's blackness.
After the UV irradiation, each of a 1% solution of icariside (1,3-butyleneglycol:ethanol=7:3, as a vehicle), prepared in Example 1, a 1% solution of hydroquinone, a 1% solution of vehicle (negative control group), was applied to the skin of each subject. […] The skin color was measured with a colorimeter (Minolta, Japan) at a 1-week interval.
ΔL*=L* value at time point of completion of application−L* value at time point of start of application [Math Figure 2]

The test system of test [1] is alpha-glucosidase (Sigma). Description: Test of alpha-glucosidase inhibitory effect. The following applies: 0.01 ml of 10 mg/ml sample; 50 U/ml alpha-glucosidase; 5 mM p-nitrophenyl-α-D-glucopyranoside, 37° C., 5 minutes; absorbance at 405 nm; untreated group = 100.0. The test is classed as biochemical. On the procedure: In this regard, the deoxynojirimycin was used as a positive control group. Each of the samples was measured for absorbance at 405 nm to determine initial absorbance, and 0.05 ml of 5 mM p-nitrophenyl-α-D-glucopyranoside as a substrate was added thereto and subjected to an enzymatic reaction at 37° C. for 5 minutes. Then, each sample was measured for absorbance at 405 nm, and the enzyme activity inhibition thereof was calculated according to Math Figure 1. Alpha-glucosidase activity inhibition (%)=100−(absorbance of each test sample/absorbance of control group×100) [Math Figure 1]

Test [2] deals with tyrosinase in human melanoma cell HM3KO cells. Description: Effect on glycosylation of human melanoma cell tyrosinase (endoglycosidase H digestion, electrophoresis, immunodetection). The test is classed as cell-based. The note with it: HM3KO cells cultured to confluency with 0.05% sample; about 72 kD = normally glycosylated, about 60 kD = glycosylation inhibited. As to the method:
In order to examine the effect of icariside II on the glycosylation of tyrosinase in human melanoma cells, the following test was carried out. First, human melanoma cell HM3KO cells (Y. Funasaka, Department of dermatology, Kobe university school of medicine, 5-1 Kusunoki-cho 7-chrome, Chuo-ku, Kobe 650, Japan) were cultured in a minimum essential medium (MEM), containing 10% bovine fetal serum, under conditions of 37° C. and 5% CO2. The cultured cells were placed in 75 cm^2 flasks at a cell density of 3×10^5 cells and left to stand overnight, such that the cells adhered to the flask wall. From the next day, the medium was replaced with a fresh medium, containing each of icariin icariside II of Example 1 and deoxynojirimycin in an amount of 0.05%. Herein, the deoxynojirimycin was used as a positive control group. The medium was replaced with a fresh medium containing each of the samples at a 1-2-day interval, and the cells were cultured to confluency in the flasks. When the cells reached confluency, the cells were collected, added to lysis buffer (2% CHAPS in 50 mM Hepes and 200 mM NaCl, pH 7.5, protease inhibitors) and ultrasonically disrupted. The disrupted cell solution was centrifuged at 4° C. and 12000 rpm for 10 minutes, unbroken cells and melanin were separated and removed, and only the supernatant was collected. Endoglycosidase H (125 units) was added to the supernatant (protein amount: […]), and the supernatant was subjected to an enzymatic reaction at 37° C. for 1 hour. Then, proteins in the supernatant were separated according to size by electrophoresis. Among the proteins separated by electrophoresis, tyrosinase could be observed by an immune reaction with an antibody. […]

Consider `Oc1ccc(O)cc1` [Hydroquinone, hydroquinone, reference compound], for which the “Lightless (ΔL*) of skin color” value in the test with human skin was 1.90 ± 0.11.

Regarding `COc1ccc(-c2oc3c(CC=C(C)C)c(O)cc(O)c3c(=O)c2O[C@@H]2O[C@H](C)[C@@H](O)[C@H](O)[C@@H]2O)cc1` [Example 5, icariside II], the “Activity inhibition (%)” value in test [1] worked out at 37.8%.

Turning to `COc1ccc(-c2oc3c(CC=C(C)C)c(O)cc(O)c3c(=O)c2O[C@@H]2O[C@H](C)[C@@H](O)[C@H](O)[C@@H]2O)cc1` [Example 4, icariside II], the “Activity inhibition (%)” value in test [1] amounted to 37.9%.

For `COc1ccc(-c2oc3c(CC=C(C)C)c(O)cc(O)c3c(=O)c2O[C@@H]2O[C@H](C)[C@@H](O)[C@H](O)[C@@H]2O)cc1` [Example 3, icariside II], in test [1], the “Activity inhibition (%)” value was 37.5%.

As to `OC[C@H]1NC[C@H](O)[C@@H](O)[C@@H]1O` [Deoxynojirimycin, deoxynojirimycin, reference compound], the “size of tyrosinase after endoglycosidase H treatment (FIG. 1)” value (from here on “size of tyrosinase”) in test [2] is recorded as “about 60 kD”. Also, the “Activity inhibition (%)” value in test [1] was determined as 41.1%.

On to `COc1ccc(-c2oc3c(CC=C(C)C)c(O)cc(O)c3c(=O)c2O[C@@H]2O[C@H](C)[C@@H](O)[C@H](O)[C@@H]2O)cc1` [Example 1, icariside II], for which the “size of tyrosinase” value in test [2] is on record as “about 60 kD”. Besides, the “Activity inhibition (%)” value in test [1] is listed as 38.2%. Moreover, the “Lightless (ΔL*) of skin color” value in the test with human skin is reported as 1.97 ± 0.25.

For the molecule `COc1ccc(-c2oc3c(CC=C(C)C)c(O[C@@H]4O[C@H](CO)[C@@H](O)[C@H](O)[C@H]4O)cc(O)c3c(=O)c2O[C@@H]2O[C@@H](C)[C@H](O)[C@@H](O)[C@H]2O)cc1` [Icariin, icariin, reference compound], the “size of tyrosinase” value in test [2] is “about 72 kD”. Also, the “Activity inhibition (%)” value in test [1] was 98.8%.

For `COc1ccc(-c2oc3c(CC=C(C)C)c(O)cc(O)c3c(=O)c2O[C@@H]2O[C@H](C)[C@@H](O)[C@H](O)[C@@H]2O)cc1` [Example 2, icariside II], in test [1], the “Activity inhibition (%)” value worked out at 38.8%.
